Data from PubChem BioAssay (NCI).
Where “and” joins values, the source holds several entries; their conditions need not be identical. Identical values can stand only once.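 Results reflect a 48-hour exposure of cells in 96-well plates to compound at five concentrations. GI50 is the concentration that inhibits growth by half. TGI: concentration producing complete growth inhibition.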

Experiments:
Assay in all cases: inhibition of tumour cell growth, NCI panel, 48 h
CAKI-1 renal = test system: CAKI-1 renal
KM12 colon = test system: KM12 colon
NCI-H522 lung = test system: NCI-H522 lung
SF-295 CNS = test system: SF-295 CNS
SK-MEL-28 melanoma = test system: SK-MEL-28 melanoma
SN12C renal = test system: SN12C renal
SNB-19 CNS = test system: SNB-19 CNS
SNB-75 CNS = test system: SNB-75 CNS
UACC-257 melanoma = test system: UACC-257 melanoma
UACC-62 melanoma = test system: UACC-62 melanoma

SMILES | GI50 (CAKI-1 renal) | TGI (CAKI-1 renal) | GI50 (KM12 colon) [µM] | TGI (KM12 colon) [µM] | GI50 (NCI-H522 lung) [µM] | TGI (NCI-H522 lung) [µM] | GI50 (SF-295 CNS) | TGI (SF-295 CNS) | GI50 (SK-MEL-28 melanoma) [µM] | TGI (SK-MEL-28 melanoma) [µM] | GI50 (SN12C renal) | TGI (SN12C renal) | GI50 (SNB-19 CNS) [µM] | TGI (SNB-19 CNS) [µM] | GI50 (SNB-75 CNS) [µM] | TGI (SNB-75 CNS) [µM] | GI50 (UACC-257 melanoma) [µM] | TGI (UACC-257 melanoma) [µM] | GI50 (UACC-62 melanoma) [µM] | TGI (UACC-62 melanoma)
O=S(=O)(CCCl)c1ccc(Cl)cc1 | 2.9 µM | 13.2 µM | 12.9 | 31.4 | 1.41 | 3.01 | 18.2 µM | 47.5 µM | 2.38 | 10.8 | 4.46 µM | 16.9 µM | 13.2 | 41.1 | 2.4 | 29.8 | 2.98 | 11.6 | 5.63 | 19.4 µM
CSC(=S)N/N=C/c1nccc2ccccc12 | – | 14.2 µM | – | 15.6 | – | 1.63 | – | 8.54 µM | – | > 79.8 | – | 12.7 µM | – | > 27.1 | – | 14 | – | 15.5 | – | 6.08 µM
N#CNC(N)=Nc1ccc(Cl)cc1 | – | > 100 µM | – | > 100 | – | > 100 | – | > 100 µM | – | > 100 | – | > 100 µM | – | > 100 | – | > 100 | – | > 100 | – | > 100 µM
Cc1ccc(-c2nc3nc(-c4ccc(F)cc4)nc(N4CCCNCC4)c3o2)cc1 | 1.44 µM | 2.74 µM | 1.79 | 3.42 | 1.65 | 3.51 | 1.82 µM | 3.35 µM | 1.79 | 3.23 | 1.67 µM | 3.13 µM | 1.7 | 3.22 | 1.06 | 2.24 | 1.89 | 3.65 | 1.83 | 3.47 µM
Cc1cc(N(CCC#N)CCC#N)ccc1/C=C(\NC(=O)/C=C/c1ccccc1)C(=O)NN | – | > 100 µM | – | > 100 | – | > 100 | – | > 95.6 µM | – | > 100 | – | > 100 µM | – | > 55.7 | – | > 62.9 | – | > 100 | – | > 100 µM
O=C1OCC2=C1C(c1ccccc1)c1cc3c(cc1N2CCO)OCO3 (stereo not drawn) | 3.87 µM | > 50 µM | 2.37 | > 50 | 1.09 | > 50 | 1.25 µM | 3.53 µM | > 50 | > 50 | 20.2 µM | > 50 µM | 15.6 | > 50 | 2.06 | > 50 | > 50 | > 50 | 2.53 | > 50 µM
Cc1ccccc1NC(=O)C1C(=O)N(c2ccccc2C)C(=O)/C1=N\NC(N)=S (stereo not drawn) | – | > 100 µM | – | > 100 | – | > 100 | – | > 100 µM | – | > 100 | – | > 100 µM | – | > 100 | – | > 100 | – | > 100 | – | > 100 µM
CCC1=CC2CN(C1)Cc1c([nH]c3ccccc13)[C@@](C(=O)OC)(c1cc3c(cc1OC)N(C)[C@H]1[C@@](O)(C(=O)OC)[C@H](OC(C)=O)[C@]4(CC)C=CCN5CC[C@]31[C@@H]54)C2 (stereo partly drawn) | 7.86 µM and 6.85 µM | 50 µM and > 100 µM | – | 0.372 | < 0.005 | 1.3 | 0.0151 µM and 0.0231 µM | 50 µM and > 100 µM | 0.0221 | > 100 | 0.0118 µM and 0.0186 µM | 50 µM and > 100 µM | 0.0238 | > 100 | – | 17.9 | 7.54 | 33.3 | 0.00589 | 50 µM and > 100 µM
COc1ccc2[nH]c3c(c2c1)[C@H](C)C[C@@H]1C(=O)N(c2ccccc2)C(=O)[C@H]31 | – | > 100 µM | – | 41.9 | – | 42.1 | – | 70.9 µM | – | > 100 | – | 58.6 µM | – | > 100 | – | 48.1 | – | > 100 | – | > 100 µM
O=C(N[C@@H](C[Se][Se]C[C@H](NC(=O)c1ccc(Br)cc1F)C(=O)O)C(=O)O)c1ccc(Br)cc1F | > 100 µM | > 100 µM | > 100 | > 100 | > 100 | > 100 | > 100 µM | > 100 µM | > 100 | > 100 | > 100 µM | > 100 µM | > 100 | > 100 | > 100 | > 100 | > 100 | > 100 | > 100 | > 100 µM
Nc1ncnc2c1ncn2CC(O)CO (stereo not drawn) | – | > 100 µM | – | > 100 | – | > 100 | – | > 100 µM | – | > 100 | – | > 100 µM | – | > 100 | – | > 100 | – | > 100 | – | > 100 µM
CCOC(=O)C(NC(=O)c1nc[nH]c1[N+](=O)[O-])C(C)C (stereo not drawn) | – | > 100 µM | – | > 100 | – | > 100 | – | > 100 µM | – | > 100 | – | > 100 µM | – | > 100 | – | > 100 | – | > 100 | – | > 100 µM
